The values below come from patent US10471025B2, “Compositions for use in treating parkinson's disease and related disorders” (Technophage, Investigação E Desenvolvimento Em …, priority 2015, dated 2019).

The subject of series [1] is 6-OHDA treated zebrafish larvae. Put plainly: Freezing (duration of freezing periods, light/dark stimulus) in 6-OHDA zebrafish larvae. In kind it is in vivo. Conditions: for Freezing recovery: optimal concentrations, methylphenidate 25 μM. On the procedure:
In the zebrafish model, the locomotor impairment was measured and related with bradykinesia in patients. Tests included evaluating ‘freezing_ in response to a light/dark stimulus. 6-OHDA induced larvae had fewer freezing episodes but spent longer periods in the frozen state. In previous studies, the duration of freezing episodes has been analyzed in PD patients. […] Nonetheless, it is an inhibitor of the neuronal dopamine transporter and since 6-OHDA needs DAT to enter the neuron and induce the disease, methylphenidate may be a false positive.
As FIGS. 9B-9C show, freezing recovery was tested using 7 candidate molecules at optimal concentrations, in an exemplary experiment with n=8 fish, and methylphenidate and amantadine at 25 ? M.

A further series deals with healthy wild type mice. Put plainly: Toxicity assay, welfare and necropsy (Example 6). The note with it: tramadol 10 mg/kg in combination with L-Dopa; L-Dopa 18 mg/kg; 24 h. On the procedure:
Their behavior was evaluated with open field tests for 1 h after i.p. injection. After 24 h, animals were sacrificed and necropsy was performed
9 week old NMRI female mice were used for this assay. Animals were tested for their welfare after two intraperitoneal injections of the test agents using the open field test. Necropsy was done after cervical dislocation. […] Benserazide at 12 mg/kg was administered 30 minutes prior to administration of these compounds, in all groups. Saline was given to the control group.
After benserazide administration, animals were monitored in the open field for 30 minutes for habituation. […] 24 hours after administration of the compounds, the animals were sacrificed and necropsy performed.
For administration of the various agents to the animals, two 700 ? L injections were administered 30 minutes apart.

The next series concerns mouse. Conditions: mouse; cited from earlier work.
For another series, the system named is rat. Conditions: rat; cited from earlier work.
The subject of series [2] is 6-OHDA treated zebrafish larvae. Briefly: Locomotor behavior rescue (total distance moved, number of jumps) in 6-OHDA zebrafish PD model. In kind it is in vivo. Conditions: for Optimal concentration: behavioral experiments and TH+ cell counts. The source says: To model Parkinson ̆s disease (PD), a neurotoxin 6-OHDA (6-hyroxydopamine) based method was used in zebrafish and in mice. In this model, 6-OHDA-lesions induce motor manifestations in zebrafish and in mice, such as reduced locomotor ability, and the loss of dopaminergic neurons. Based on the 6-OHDA PD zebrafish model, compounds from a small molecules library were screened for rescue of the parkinsonian phenotype (Example 1, see below).
The screen was based on both the recovery of impaired locomotor behavior and dopaminergic neuronal loss.
Values were normalized for the mean of disease state in each experiment (disease=1). Each plot contains data from 3 independent experiments with a total of 24 larvae. As a control, zebrafish were treated with only the vehicle, ascorbic acid.
For these experiments, Tubingen (TU) wild-type zebrafish, a specific strain of wild-type zebrafish, were used.

Series [3] shares this test system. Briefly: Co-administration with L-Dopa, total distance 6-OHDA larvae move. The note with it: total distance; L-Dopa 250 or 125 μM. It counts as in vivo.
The conditions of series [4]: cited from earlier work.
The conditions of series [5]: in DMSO; cited from earlier work.
The test system of series [6] is 6-OHDA treated zebrafish larvae. Put plainly: LD50 / lethality in the disease context of the zebrafish model.
The target in another series is T1, COX-2 (Homo sapiens, UniProt P35354).
T1 sequence (P35354 18-604): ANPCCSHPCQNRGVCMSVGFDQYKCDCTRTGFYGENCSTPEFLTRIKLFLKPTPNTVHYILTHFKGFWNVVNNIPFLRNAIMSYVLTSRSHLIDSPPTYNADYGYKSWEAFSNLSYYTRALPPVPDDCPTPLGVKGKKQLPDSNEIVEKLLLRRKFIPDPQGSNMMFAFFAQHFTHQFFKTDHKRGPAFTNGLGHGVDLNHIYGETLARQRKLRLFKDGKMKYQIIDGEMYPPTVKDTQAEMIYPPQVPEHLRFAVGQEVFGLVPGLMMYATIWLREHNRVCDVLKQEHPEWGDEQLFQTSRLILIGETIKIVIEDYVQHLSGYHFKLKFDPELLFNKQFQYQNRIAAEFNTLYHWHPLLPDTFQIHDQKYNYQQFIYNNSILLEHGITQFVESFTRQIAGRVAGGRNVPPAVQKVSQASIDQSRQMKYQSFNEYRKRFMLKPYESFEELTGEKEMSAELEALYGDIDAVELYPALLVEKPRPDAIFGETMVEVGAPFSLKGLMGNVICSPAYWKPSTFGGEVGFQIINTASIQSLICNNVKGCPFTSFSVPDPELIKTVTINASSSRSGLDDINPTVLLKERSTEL
Conditions: cited from earlier work.

Series [7] concerns 6-OHDA treated zebrafish larvae. Put plainly: Rescue of Tyrosine hydroxylase (TH)-positive dopaminergic neurons in 6-OHDA zebrafish larvae. Conditions: for Neurorescue: TH+ neurons at optimal dose, p. In kind it is in vivo. The protocol:
The 7 candidates also were tested in terms of rescue of dopaminergic neurons positive for Tyrosine hydroxylase (Th) in the substancia nigra pars compacta of the test animals. […] Results were normalized for healthy control values (healthy control=100% of neurons). As a control, zebrafish were treated with only the vehicle, ascorbic acid. ‘6-OHDA_ represents results in zebrafish receiving no treatment.
FIGS. 6E-6G show representative Z-projections of confocal stacks of whole-mount anti-TH immunohistochemistry in 6 days post-fertilization (dpf) of zebrafish larvae (age of the fish) control (FIG. 6E), 6-OHDA (FIG. 6F), and tapentadol treated-larvae (FIG. 6G).

For series [8] the following is noted: in vivo; cited from earlier work.
For series [9] the following is noted: cited from earlier work. The source holds these as a separate data set.
[10] abbreviates: oral 1,000-2,000 mg to steady state.

The structures appear in SMILES notation. Several values for one entry are separate records, joined by “and”; a condition that tells them apart may be missing. Equal entries are not always repeated. Entries after “also recorded” stand apart in the source; their conditions may differ. Where two headings read alike, the source gives them in different places.

As to `COC(=O)C(c1ccccc1)C1CCCCN1` (centres unmarked) [Methylphenidate], in [1], the Freezing recovery entry is listed as “more consistent freezing recovery”.

As for `COc1cccc(C2(O)CCCCC2CN(C)C)c1` (centres unmarked) [tramadol], the Necropsy findings result with healthy wild type mice was “normal abdominal organs, with the exception of one that had a slight hyperemia in the small intestine”.

As usually defined, the LD50 is the dose at which mortality reaches 50%. `COc1ccc2cc(CCC(C)=O)ccc2c1` [nabumetone]: in the series with mouse, the 50% lethal dose (LD50) was 4290 mg/kg. Also, the LD50 result in the series with rat was “(mouse) or 3880 mg/kg”. Further, in series [2] (7 candidate molecules, 3 independent experiments), the “Locomotor behavior rescue (total distance moved, number of jumps), confirmation of screen” value is reported as “strong candidates”. This molecule also came in with an Optimal concentration in series [2] of 0.9 µM. In [2] (zebrafish, in vivo), the “Number of jumps: concentration validated as recovering the 6-OHDA induced behavior” value stood at 0.456 µM; the “Total distance travelled, difference between treated larvae and disease control” value is around 200 mm. Also, in series [3], the “Effect of co-administration with L-Dopa on locomotor recovery” value is recorded as “the same”. In series [1], the Freezing recovery result was “do not show an ability to recover freezing phenotype”. The “Duration of freezing periods, recovery vs 6-OHDA treated larvae” value in series [1] (tapentadol 48.5, stavudine 50, nabumetone 0.91 μM, L-Dopa treatment) was “not recovered”. In [4] (1,000 mg oral dose), the “Share of dose converted into unidentified metabolites” value is reported as 50% and the “Share of dose converted to 6MNA” value is recorded as “Approximately 35%”. Moreover, the “Absorption from the gastrointestinal tract” value in series [4] (in vivo) is recorded as “well absorbed”. In addition, the Solubility in [5] is reported as 50 mg/ml in. In series [6] (18 μM), the Embryo lethality result was “no dead embryos”. For the same molecule, the Embryo lethality entry in series [6] (27 μM) is listed as “all of the embryos were dead”. For the same molecule, on COX-2, the COX-2 inhibition entry is on record as “poor COX-2 inhibitor”. Also, the Neurorescue result in series [7] was “confirmed”. In addition, the “Neuroprotective effect / recovery of TH+ neurons” value in [7] (at the optimal concentration of each molecule) is reported as “confirmed; also recorded: Recovery was observed”.

In turn, `COC(=O)C1=C(C)NC(C)=C(C(=O)OC(C)C)C1c1cccc2nonc12` (centres unmarked) [Isradipine] showed an Optimal concentration in [2] of 0.045 µM. The “Effective concentration / peak, small range plot” value in series [2] (phenotype recovery, total distance moved) was 0.045 µM and 0.084 µM. The “Effect of co-administration with L-Dopa on locomotor recovery” value in series [3] is given as “lost its effect”. Moreover, the Solubility in [5] is 25 mg/ml in. The Neurorescue entry in series [7] was “confirmed”.

`COc1ccc2cc(CC(=O)O)ccc2c1` [6MNA, 6-methoxy-2-naphthylacetic acid]: the “Printed only as 'It is 0.2-0.3%' (after plasma protein binding)” value in series [4] (concentrations typically achieved following 1,000 mg of nabumetone) is 0.2-0.3%. Moreover, the “Bound to plasma proteins” value in series [4] (in vivo) is “more than 99%”. For the same molecule, in [4] (setting [10]), the Elimination half-life entry was “approximately 24 hours” and the Mean plasma clearance was 20 to 30 mL/min. Further, the “Inhibition of prostaglandin synthesis” value on COX-2 (most likely through binding to the COX-2 and COX-1 receptors) is “potent inhibitor”.

Consider `CC[C@@H](c1cccc(O[C@@H]2O[C@H](C(=O)O)[C@@H](O)[C@H](O)[C@H]2O)c1)[C@@H](C)CN(C)C` [tapentadol-O-glucuronide], for which the Blood-brain barrier crossing entry in [8] is “lower permeability through the blood brain barrier”. For the same molecule, the “AUC, fold higher compared with normal renal function” value in series [9] (mild renal impairment (CLCR=50 to <80 mL/min)) is reported as 1.5 fold; in series [9] (moderate renal impairment (CLCR=30 to <50 mL/min)), 2.5 fold; in series [9] (severe renal impairment (CLCR=<30 mL/min)), 5.5 fold. In series [9] (multiple (every 6 hour) dose study, 75 to 175 mg tapentadol), the Mean accumulation factor is reported as 1.8.
